Test results from patent US4377587A, “Arylamine derivatives and use thereof as microbicides” (Ciba-Geigy Corporation, priority 1980, dated 1983).
≈ marks a conversion by molar mass, not a printed value.

How the values were obtained:
[1] = system: Pythium debaryanum; test: Action on Pythium debaryanum on sugar beets, (b) after seed dressing application; format: in vivo; details: sugar beet, seed dressing 0.06%, 2-3 weeks at c. 20° C.
Procedure: (§1) Action on Pythium debaryanum on sugar beets
(b) Action after seed dressing application
The fungus is cultivated on carrot chip nutrient solution and added to a mixture of earth and sand. Flower pots are filled with the infected soil and sugar beet seeds which have been treated with the test preparations formulated as seed dressing powders are sown therein (0.06% of one of the compounds of Tables 1 and 2). The pots are then stood in a greenhouse for 2-3 weeks at c. 20° C. The soil is kept uniformly moist by gently spraying it with water. The emergence of the sugar beet plants is ascertained in evaluating the test.

[2] = system: Phytophthora infestans; format: in vivo, Phytophthora infestans (on tomato plants); details: tomato, sprayed 0.06% active ingredient 22 hours after infestation, evaluated 5 days after infestation
[3] = Water solubility; format: physicochemical; details: 25° C.
Description: (§2) Determination of physico-chemical data
(a) Reduced water solubility

[4] = system: Phytophthora infestans; format: in vivo, Phytophthora infestans (on tomato plants); details: tomato, spray 0.06% active ingredient, infested after 24 hours, evaluated after 5 days at 20° C.
[5] = Volatility: evaporation half-life T50 in an evaporating tube; format: physicochemical; details: 50° C., stream of air of 20 m/h, relative to T50 of Metalaxyl
Procedure: as §2
In an evaporating tube, the evaporation half-life values T50 of representative fungicides of this invention are determined at 50° C. and in a stream of air of 20 m/h. The values are shown below, relative to the corresponding half-life T50 of Metalaxyl.

[6] = system: Pythium debaryanum; test: Action on Pythium debaryanum on sugar beets, (a) after soil application; format: in vivo; details: sugar beet, 20 ppm of active ingredient based on volume of soil, 2-3 weeks at 20°-24° C.
Description: as §1
(a) Action after soil application
The fungus is cultivated on carrot chips nutrient solution and added to a mixture of earth and sand. Flower pots are filled with the infected soil, in which sugar beet seeds are then sown. Immediately after sowing, the test preparations formulated as wettable powders are poured in the form of aqueous suspensions over the soil (20 ppm of active ingredient, based on the volume of the soil). The pots are then stood for 2-3 weeks in a greenhouse at 20°-24° C. The soil is kept uniformly moist by gently spraying it with water. The emergence of the sugar beet plants as well as the number of healthy and sick plants are ascertained in evaluating the test.

[7] = system: Podosphaera leucotricha; test: Residual-protective action against Podosphaera leucotricha on apples; format: in vivo; details: apple seedlings, spray 0.06% of active ingredient, evaluated 12 days after infection
Procedure: Residual-protective action against Podosphaera leucotricha on apples
Apple seedlings in the 5-leaf stage are sprayed with a spray mixture (0.06% of active ingredient) prepared from a wettable powder formulation of the active ingredient. After 24 hours the treated plants are infected with a conidia suspension of the fungus and placed in a climatic chamber at 70% relative humidity and 20° C. Evaluation of fungus infestation is made 12 days after infection.

[8] = system: Venturia inaequalis; test: Residual-protective action against Venturia inaequalis on apple shoots; format: in vivo; details: spray 0.06%, evaluated 15 days after infection
Procedure: Residual-protective action against Venturia inaequalis on apple shoots
Apple cuttings with 10-20 cm long fresh shoots are sprayed with a spray mixture prepared from a wettable powder formulation of the active ingredient (0.06%). After 24 hours the treated plants are infected with a conidia suspension of the fungus. The plants are then incubated for 5 days at 90-100% relative humidity and stood in a greenhouse for a further 10 days at 20°-24° C. Scab infestation is evaluated 15 days after infection.

[9] = system: Erysiphe graminis; test: Action against Erysiphe graminis on barley, residual protective action; format: in vivo, Erysiphe graminis (on barley plants); details: 0.02% active ingredient sprayed, infected after 3-4 hours, evaluated after 10 days
Procedure: Action against Erysiphe graminis on barley
Residual protective action
Barley plants about 8 cm in height are sprayed with a spray mixture (0.02% of active ingredient) prepared from the active ingredient formulated as a wettable powder. The treated plants are dusted with conidia of the fungus after 3-4 hours. The infected barley plants are then stood in a greenhouse at about 22° C. The extent of the fungus infection is evaluated after 10 days.

## COCC(=O)N(c1c(C)cccc1N)C(C)C(=O)OC (stereo not shown) [Compound 2, N-(1'-methoxycarbonylethyl)-N-methoxyacetyl-2-amino-6-methyl-aniline]
[1]
  emergent plants (fully effective against Pythium pathogens), seed dressing application: over 90%
[2]
  fungus attack compared with untreated and infected control plants (100% attack), residual curative: less than 10%
[3]
  solubility: 300 µg/mL (≈ 1.07 mM)
[4]
  fungus attack compared with untreated control plants (100% attack), residual-protective: less than 10%
[5]
  Multiple of Metalaxyl T50 (evaporation half-life): 5.4 ×
[6]
  emergent plants (fully effective against Pythium pathogens), soil application: over 90%
[7]
  fungus attack compared with untreated and infected control seedlings (100% attack): less than 10%

## COCC(=O)N(c1c(N)ccc(C)c1C)C(C)C(=O)OC (stereo not shown) [Compound 8, N-(1'methoxycarbonylethyyl)-N-methoxyacetyl-2,3-dimethyl-6-aminoaniline]
[1]
  emergent plants (fully effective against Pythium pathogens), seed dressing application: over 90%
[2]
  fungus attack compared with untreated and infected control plants (100% attack), residual curative: less than 10%
[8]
  scab infestation (reduced to): 10-15%
[4]
  fungus attack compared with untreated control plants (100% attack), residual-protective: less than 10%
[6]
  emergent plants (fully effective against Pythium pathogens), soil application: over 90%
[7]
  fungus attack compared with untreated and infected control seedlings (100% attack): less than 10%

## COCC(=O)N(c1c(C)ccc(N)c1C)C(C)C(=O)OC (stereo not shown) [Compound 10, N-(1'methoxycarbonylethyl)-N-methoxyacetyl-2,6-dimethyl-3-aminoaniline]
[1]
  emergent plants (fully effective against Pythium pathogens), seed dressing application: over 90%
[9]
  fungus attack compared with control plants (100% attack): less than 10%
[2]
  fungus attack compared with untreated and infected control plants (100% attack), residual curative: less than 10%
[8]
  scab infestation (reduced to): 10-15%
[4]
  fungus attack compared with untreated control plants (100% attack), residual-protective: less than 10%
[6]
  emergent plants (fully effective against Pythium pathogens), soil application: over 90%
[7]
  fungus attack compared with untreated and infected control seedlings (100% attack): less than 10%

## COCC(=O)N(c1c(C)ccc([N+](=O)[O-])c1C)C(C)C(=O)OC (stereo not shown) [Compound 28, N-(1'-methoxycarbonylethyl)-N-methoxyacetyl-2,6-dimethyl-3-nitroaniline]
[1]
  emergent plants (fully effective against Pythium pathogens), seed dressing application: over 90%
[2]
  fungus attack compared with untreated and infected control plants (100% attack), residual curative: less than 10%
[3]
  solubility: 2500 µg/mL (≈ 7.71 mM)
[8]
  scab infestation (reduced to): 10-15%
[4]
  fungus attack compared with untreated control plants (100% attack), residual-protective: less than 10%
[5]
  Multiple of Metalaxyl T50 (evaporation half-life): 35.8 ×
[6]
  emergent plants (fully effective against Pythium pathogens), soil application: over 90%
[7]
  fungus attack compared with untreated and infected control seedlings (100% attack): less than 10%

## CCOCC(=O)N(c1c(C)ccc([N+](=O)[O-])c1C)C(C)C(=O)OC (stereo not shown) [Compound 31, N-(1'-methoxycarbonylethyl)-N-ethoxyacetyl-2,6-dimethyl-3-nitroaniline]
[1]
  emergent plants (fully effective against Pythium pathogens), seed dressing application: over 90%
[2]
  fungus attack compared with untreated and infected control plants (100% attack), residual curative: less than 10%
[3]
  solubility: 2500 µg/mL (≈ 7.39 mM)
[8]
  scab infestation (reduced to): 10-15%
[4]
  fungus attack compared with untreated control plants (100% attack), residual-protective: less than 10%
[5]
  Multiple of Metalaxyl T50 (evaporation half-life): 41.8 ×
[6]
  emergent plants (fully effective against Pythium pathogens), soil application: over 90%
[7]
  fungus attack compared with untreated and infected control seedlings (100% attack): less than 10%

## COCC(=O)N(c1c(C)ccc([N+](=O)[O-])c1C)C(C)C(=O)OC(C)C (stereo not shown) [Compound 33, N-(1'-isopropyloxycarbonylethyl)-N-methoxyacetyl-2,6-dimethyl-3-nitroaniline]
[1]
  emergent plants (fully effective against Pythium pathogens), seed dressing application: over 90%
[2]
  fungus attack compared with untreated and infected control plants (100% attack), residual curative: less than 10%
[3]
  solubility: 500 µg/mL (≈ 1.42 mM)
[4]
  fungus attack compared with untreated control plants (100% attack), residual-protective: less than 10%
[5]
  Multiple of Metalaxyl T50 (evaporation half-life): 45.6 ×
[6]
  emergent plants (fully effective against Pythium pathogens), soil application: over 90%
[7]
  fungus attack compared with untreated and infected control seedlings (100% attack): less than 10%

## COCC(=O)N(c1c(C)cccc1[N+](=O)[O-])C(C)C(=O)OC (stereo not shown) [Compound 48, N-(1'-methoxycarbonylethyl)-N-methoxyacetyl-2-methyl-6-nitroaniline]
[1]
  emergent plants (fully effective against Pythium pathogens), seed dressing application: over 90%
[2]
  fungus attack compared with untreated and infected control plants (100% attack), residual curative: less than 10%
[3]
  solubility: 4000 µg/mL (≈ 12.9 mM)
[4]
  fungus attack compared with untreated control plants (100% attack), residual-protective: less than 10%
[5]
  Multiple of Metalaxyl T50 (evaporation half-life): 12.3 ×
[6]
  emergent plants (fully effective against Pythium pathogens), soil application: over 90%
[7]
  fungus attack compared with untreated and infected control seedlings (100% attack): less than 10%

## COCC(=O)N(c1c(N)ccc2ccccc12)C(C)C(=O)OC (stereo not shown) [Compound 701, 1N-(1'-methoxycarbonylethyl)-1N-methoxyacetyl-1,2-diaminonaphthalene]
[1]
  emergent plants (fully effective against Pythium pathogens), seed dressing application: over 90%
[2]
  fungus attack compared with untreated and infected control plants (100% attack), residual curative: less than 10%
[8]
  scab infestation (reduced to): 10-15%
[4]
  fungus attack compared with untreated control plants (100% attack), residual-protective: less than 10%
[6]
  emergent plants (fully effective against Pythium pathogens), soil application: over 90%
